The target of the test is T1, human glucagon-like peptide 1 receptor (Homo sapiens, UniProt P43220).
T1 construct: Full-length human glucagon-like peptide 1 receptor was stably expressed in CHO-K1 cells; expressed in transfected cells; host or cells: CHO-K1 (clone CHO-GLP1R-19)
Briefly: Cyclic AMP determination in CHO-K1 cells stably expressing the GLP-1 receptor (cAMP SPA). The note with it: CHO-GLP1R-19 cells, read-out: EC50, stimulation of cAMP production. It is filed as cell-based. Here is the method:
CHO-GLP-1R-19 cells (2,500 in 100 μl of media) were plated into each well of a 96-well tissue culture microtiter plate and incubated in 5% CO2 atmosphere at 37° C., for 72 h. On the day of the assay, cells were washed once with 100 μl of PBS. […] After incubation at room temperature for 15-18 h, plates were counted 2 min each/well in a TopCount NXT(Packard).
The data obtained was processed in Excel-fit database. From a cyclic AMP standard curve, the amounts of released cAMP were determined and the % maximal activity was calculated and plotted against log compound concentration. The data was analyzed by nonlinear regression curve fit (sigmoidal dose) to determine the EC50 of the compounds.

Where two headings read alike, the source gives them in different places.

T1 sequence (P43220 24-463): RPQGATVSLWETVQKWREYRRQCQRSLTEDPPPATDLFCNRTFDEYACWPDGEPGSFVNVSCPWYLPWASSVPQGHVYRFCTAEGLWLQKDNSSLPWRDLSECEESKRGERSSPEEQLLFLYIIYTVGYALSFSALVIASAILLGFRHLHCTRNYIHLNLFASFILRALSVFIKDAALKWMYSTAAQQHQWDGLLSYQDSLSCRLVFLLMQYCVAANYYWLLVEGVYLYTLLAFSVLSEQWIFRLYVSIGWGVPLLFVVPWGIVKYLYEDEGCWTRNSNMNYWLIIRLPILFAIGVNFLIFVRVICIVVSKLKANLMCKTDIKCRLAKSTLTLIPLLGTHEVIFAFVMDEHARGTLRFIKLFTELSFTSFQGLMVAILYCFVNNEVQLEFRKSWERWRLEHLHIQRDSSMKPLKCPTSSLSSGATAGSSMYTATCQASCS

One may read the EC50 as the concentration giving half of the maximal effect. In the case of `C[C@H](NC(=O)[C@@H](N)Cc1cnc[nH]1)C(=O)N[C@@H](CCC(=O)O)C(=O)NCC(=O)N[C@H](C(=O)N[C@@H](Cc1ccccc1)C(=O)N[C@H](C(=O)N[C@@H](CO)C(=O)N[C@@H](CC(=O)O)C(=O)N[C@@H](Cc1ccc(-c2ccccc2)cc1)C(=O)N[C@@H](Cc1ccc(-c2ccccc2)cc1)C(N)=O)[C@@H](C)O)[C@@H](C)O` [GLP-1 11-mer peptide analog, His-Ala-Clu-Gly-Thr-Phe-Thr-Ser-Asp-Bip-Bip-NH2], the EC50 (determined as in Example 13) came out at 1.1 µM. `C[C@H](NC(=O)[C@@H](N)Cc1c[nH]cn1)C(=O)N[C@@H](CCC(=O)O)C(=O)NCC(=O)N[C@H](C(=O)N[C@@H](Cc1ccccc1)C(=O)N[C@H](C(=O)N[C@@H](CO)C(=O)N[C@@H](CC(=O)O)C(N)=O)[C@@H](C)O)[C@@H](C)O`: for the setting “same assay”, the EC50 was more than 1000 µM.
